Test results taken from article PMC7865522, “Analyzing Kinase Similarity in Small Molecule and Protein Structural Space to Explore the Limits of Multi-Target Screening” (Molecules, 2021).

How the values were obtained:
BRAF = biological target: T1, BRAF (Homo sapiens, UniProt P15056); assay: Eurofins in vitro kinase inhibition assay; type: biochemical; details: 20 µM; Table 3; read-out: % inhib. at 20 µM, BRAF (Eurofins), printed as symbol
T1 construct: purchased DiscoverX (KINOMEscan service); host or cells: E. coli BL21-derived host (T7 phage) or HEK-293
Outline: (§1)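 Compounds tested at 20 µM by a CRO. For EGFR, ErbB2 and BRAF, the kinase was incubated with ATP and a substrate analog and phosphorylation was measured. PI3K was read by HTRF as displacement of biotinylated PIP3 by PIP3 made from PIP2. Values are % inhibition of control activity, mean (SD).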

ErbB2 = biological target: T2, ErbB2 (Homo sapiens, UniProt P04626); assay: Eurofins in vitro kinase inhibition assay; type: biochemical
T2 construct: purchased DiscoverX (KINOMEscan service); host or cells: E. coli BL21-derived host (T7 phage) or HEK-293
Outline: as §1

PI3K [1] = biological target: T3, PI3K (Homo sapiens, UniProt P42336); assay: Eurofins in vitro kinase inhibition assay (HTRF, PIP3 displacement); type: biochemical; design: purchased Eurofins Cerep (contract assay); details: compound 20 µM; mean (SD); above 50% significant, 25-50% weak
Outline: as §1
Target sequence in this assay (P42336 whole entry): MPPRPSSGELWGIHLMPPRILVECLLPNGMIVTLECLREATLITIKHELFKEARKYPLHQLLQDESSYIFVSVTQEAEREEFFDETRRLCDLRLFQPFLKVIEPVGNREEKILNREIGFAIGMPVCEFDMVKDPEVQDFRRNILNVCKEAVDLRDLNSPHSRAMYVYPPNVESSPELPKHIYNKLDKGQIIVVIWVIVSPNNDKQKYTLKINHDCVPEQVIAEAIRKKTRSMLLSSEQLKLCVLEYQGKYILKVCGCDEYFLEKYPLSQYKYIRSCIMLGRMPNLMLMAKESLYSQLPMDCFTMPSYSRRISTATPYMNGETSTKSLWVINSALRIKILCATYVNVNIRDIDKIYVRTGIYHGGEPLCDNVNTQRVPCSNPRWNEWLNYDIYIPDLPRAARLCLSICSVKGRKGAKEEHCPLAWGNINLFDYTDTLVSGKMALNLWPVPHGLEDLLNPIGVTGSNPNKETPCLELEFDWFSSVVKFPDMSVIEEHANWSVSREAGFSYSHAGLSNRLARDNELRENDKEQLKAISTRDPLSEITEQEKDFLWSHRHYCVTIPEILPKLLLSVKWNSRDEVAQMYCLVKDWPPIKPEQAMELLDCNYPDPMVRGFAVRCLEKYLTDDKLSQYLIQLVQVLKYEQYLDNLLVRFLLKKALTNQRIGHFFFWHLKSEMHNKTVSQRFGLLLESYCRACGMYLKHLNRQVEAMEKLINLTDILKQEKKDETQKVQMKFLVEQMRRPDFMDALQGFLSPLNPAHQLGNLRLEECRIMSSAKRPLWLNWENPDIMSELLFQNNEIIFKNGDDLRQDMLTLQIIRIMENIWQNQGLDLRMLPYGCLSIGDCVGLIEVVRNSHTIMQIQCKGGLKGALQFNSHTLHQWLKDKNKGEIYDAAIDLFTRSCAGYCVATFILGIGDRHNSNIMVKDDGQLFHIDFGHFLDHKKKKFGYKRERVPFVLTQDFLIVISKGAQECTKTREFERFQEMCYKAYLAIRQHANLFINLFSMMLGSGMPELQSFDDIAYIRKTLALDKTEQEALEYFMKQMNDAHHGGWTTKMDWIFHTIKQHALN
Target sequence in this assay (P27986 whole entry partner): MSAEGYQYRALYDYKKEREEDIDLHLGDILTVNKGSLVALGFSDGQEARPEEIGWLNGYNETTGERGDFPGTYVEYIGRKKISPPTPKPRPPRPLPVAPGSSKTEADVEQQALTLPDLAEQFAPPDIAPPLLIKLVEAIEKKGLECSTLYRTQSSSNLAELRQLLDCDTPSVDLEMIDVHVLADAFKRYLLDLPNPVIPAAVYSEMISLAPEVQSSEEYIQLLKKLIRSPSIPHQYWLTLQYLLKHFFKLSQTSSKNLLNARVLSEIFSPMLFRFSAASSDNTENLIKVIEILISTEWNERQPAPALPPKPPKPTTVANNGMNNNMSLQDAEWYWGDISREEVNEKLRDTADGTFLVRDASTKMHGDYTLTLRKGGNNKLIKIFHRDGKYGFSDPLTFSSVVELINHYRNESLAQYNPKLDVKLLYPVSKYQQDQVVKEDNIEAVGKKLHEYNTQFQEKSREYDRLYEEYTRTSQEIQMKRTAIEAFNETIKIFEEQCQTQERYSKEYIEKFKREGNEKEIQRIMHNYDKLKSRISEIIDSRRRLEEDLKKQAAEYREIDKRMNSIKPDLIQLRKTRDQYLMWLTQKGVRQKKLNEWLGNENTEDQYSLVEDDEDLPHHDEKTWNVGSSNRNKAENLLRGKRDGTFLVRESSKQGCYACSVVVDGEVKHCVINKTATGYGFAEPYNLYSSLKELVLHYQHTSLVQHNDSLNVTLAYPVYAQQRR

PI3K [2] = biological target: T3, PI3K; assay: DiscoverX KINOMEscan competition binding assay; design: purchased DiscoverX (KINOMEscan service); host or cells: E. coli BL21-derived host (T7 phage) or HEK-293; details: compound 10 µM; lower values = higher affinity; below 35% = significant binding
Outline: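 We measured displacement of kinase from a resin-bound standard ligand by 10 µM compound after 1 h incubation at room temperature, with qPCR detection of eluted kinase. Values below 35% of control count as significant binding.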
Target sequence in this assay (P42336 whole entry): as the sequence (P42336 whole entry) above

T2 sequence (P04626 23-1255): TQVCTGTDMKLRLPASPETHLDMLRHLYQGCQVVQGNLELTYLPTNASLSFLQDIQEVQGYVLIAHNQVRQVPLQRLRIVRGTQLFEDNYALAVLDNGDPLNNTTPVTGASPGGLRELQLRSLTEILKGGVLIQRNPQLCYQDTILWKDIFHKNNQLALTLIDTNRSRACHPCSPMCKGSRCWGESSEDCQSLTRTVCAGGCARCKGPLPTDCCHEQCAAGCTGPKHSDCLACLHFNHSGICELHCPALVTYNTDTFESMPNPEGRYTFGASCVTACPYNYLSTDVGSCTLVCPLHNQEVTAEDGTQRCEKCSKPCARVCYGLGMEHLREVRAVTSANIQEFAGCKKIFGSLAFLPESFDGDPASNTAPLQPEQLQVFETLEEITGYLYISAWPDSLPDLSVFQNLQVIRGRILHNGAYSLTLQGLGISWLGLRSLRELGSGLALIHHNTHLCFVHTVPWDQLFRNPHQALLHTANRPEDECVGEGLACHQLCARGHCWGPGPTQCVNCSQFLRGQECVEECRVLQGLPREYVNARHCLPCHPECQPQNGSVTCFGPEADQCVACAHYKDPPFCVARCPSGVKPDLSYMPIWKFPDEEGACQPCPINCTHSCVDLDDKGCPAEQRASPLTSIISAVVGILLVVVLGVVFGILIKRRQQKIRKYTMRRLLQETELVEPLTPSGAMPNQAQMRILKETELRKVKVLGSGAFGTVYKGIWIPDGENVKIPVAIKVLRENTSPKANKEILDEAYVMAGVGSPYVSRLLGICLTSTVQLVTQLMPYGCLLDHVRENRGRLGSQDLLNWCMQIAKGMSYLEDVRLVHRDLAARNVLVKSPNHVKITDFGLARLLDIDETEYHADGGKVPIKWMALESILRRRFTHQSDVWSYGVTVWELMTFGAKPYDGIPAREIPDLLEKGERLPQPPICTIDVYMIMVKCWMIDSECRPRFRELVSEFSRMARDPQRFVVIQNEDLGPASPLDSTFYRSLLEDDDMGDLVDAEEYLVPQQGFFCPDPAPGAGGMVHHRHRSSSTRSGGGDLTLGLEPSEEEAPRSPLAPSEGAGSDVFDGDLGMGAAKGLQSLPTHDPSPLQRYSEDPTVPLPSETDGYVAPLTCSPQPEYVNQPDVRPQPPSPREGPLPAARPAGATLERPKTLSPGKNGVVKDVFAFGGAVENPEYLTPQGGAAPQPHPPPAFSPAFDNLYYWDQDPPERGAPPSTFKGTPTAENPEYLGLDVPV
T1 sequence (P15056 whole entry): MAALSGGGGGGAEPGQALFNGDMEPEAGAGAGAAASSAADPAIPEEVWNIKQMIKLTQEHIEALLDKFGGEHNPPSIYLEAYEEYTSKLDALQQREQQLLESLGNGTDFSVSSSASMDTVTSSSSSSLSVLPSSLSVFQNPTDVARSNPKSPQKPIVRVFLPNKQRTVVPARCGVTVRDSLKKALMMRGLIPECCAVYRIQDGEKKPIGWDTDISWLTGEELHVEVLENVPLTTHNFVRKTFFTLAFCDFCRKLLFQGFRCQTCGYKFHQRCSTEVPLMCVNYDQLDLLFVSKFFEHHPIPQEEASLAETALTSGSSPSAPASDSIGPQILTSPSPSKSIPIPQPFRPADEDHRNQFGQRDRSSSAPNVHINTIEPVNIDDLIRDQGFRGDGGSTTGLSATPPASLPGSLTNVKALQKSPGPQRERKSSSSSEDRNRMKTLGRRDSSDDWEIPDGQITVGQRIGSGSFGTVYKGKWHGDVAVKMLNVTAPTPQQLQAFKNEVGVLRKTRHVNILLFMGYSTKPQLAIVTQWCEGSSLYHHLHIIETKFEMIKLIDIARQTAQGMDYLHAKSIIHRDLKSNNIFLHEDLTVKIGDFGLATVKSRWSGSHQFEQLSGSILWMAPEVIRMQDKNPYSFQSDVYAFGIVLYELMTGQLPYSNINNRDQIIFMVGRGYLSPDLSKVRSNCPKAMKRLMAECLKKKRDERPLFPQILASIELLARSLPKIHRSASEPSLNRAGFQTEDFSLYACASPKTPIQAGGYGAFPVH

inhibition at 20 µM (BRAF): < 50% | inhibition at 20 µM (ErbB2; 20 µM, Table 3, read-out: % inhib. at 20 µM, ErbB2 (Eurofins), printed as symbol): < 50% | % inhibition of control activity, ErbB2 (Eurofins) (ErbB2; compound 20 µM, mean (SD), above 50% significant, 25-50% weak): -1.3 (1.8) % inhibition | % inhibition of control activity, PI3K (Eurofins) (PI3K [1]): -6.7 (2.3) % inhibition | % control, PI3K (DiscoverX) (PI3K [2]): 100 % control
SMILES: COC(=O)Cc1ccc(Oc2ncnc3sc4c(c23)CC[C@@H](C)C4)cc1 (racemic) [DS39984]
